Patent publication EP0359821A1, “METHOD OF STERILIZING PLANT ANTHERS” (priority 1988, dated 1989)

Experiments:
[1] = test system: Tetraploider Roggen Sorte Ukrainskaya tetra; assay: Field trial of gametocidal activity, tetraploid rye Ukrainskaya tetra; type: in vivo; settings: 1% aqueous emulsion, 10 kg/ha
in vivo = settings: mouse
[2] = test system: Diploider Roggen Sorte Kharkovskaya 55; assay: Field trial of gametocidal activity, diploid rye Kharkovskaya 55; settings: 1% aqueous emulsion, 6 kg/ha
Tritikale Sorte PRAG I09 = assay: Field trial of gametocidal activity, triticale; type: in vivo; settings: 1% aqueous emulsion, 12 kg/ha; for Prozentsatz des Ansetzens bei freier Bestäubung: control = 100
From the text: (§1) Bei Weizen und Tritikale werden Einzelisolatoren verwendet.
Pflanzen von Tritikale Sorte PRAG I09 werden in der V. und VI.
Der Verbrauch an Sterilisationsmittel beträgt 12 kg/ha.

[3] = test system: Hirse Sorte Mironovskoe 94; assay: Field trial of gametocidal activity, millet Mironovskoe 94; type: in vivo; settings: 1% aqueous emulsion, 10 kg/ha; for percent pollen sterility at 10000 g/ha: read-out: Prozentsatz der Sterilität; for response vs control in vivo at 10000 g/ha: control = 100, read-out: Prozentsatz des Ansetzens bei freier Bestäubung
[4] = test system: Diploider Roggen Sorte Gibrid 340/65; assay: Field trial of gametocidal activity, diploid rye Gibrid 340/65; settings: Gibrid 340/65 (text: 312/65), 1% aqueous emulsion, 10 kg/ha
[5] = test system: Diploider Roggen Sorte Chulpan; assay: Field trial of gametocidal activity, diploid rye Chulpan; type: in vivo
From the text: as §1
Pflanzen von diploidem Roggen Sorte Chulpan werden in der V. oder VI.
Der Verbrauch an Sterilisationsmitteln beträgt 10 kg/ha.

[6] = test system: Tetraploider Roggen Sorte Belta; assay: Field trial of gametocidal activity, tetraploid rye Belta; type: in vivo; settings: 1% aqueous emulsion, 10 kg/ha
[7] = test system: Tetraploider Roggen Sorte Jubileinaya; assay: Field trial of gametocidal activity, tetraploid rye Jubileinaya; settings: 1% aqueous emulsion, 10 kg/ha
[8] = test system: Tetraploider Roggen Sorte Gibrid 67; assay: Field trial of gametocidal activity, tetraploid rye Gibrid 67; type: in vivo; settings: 1% aqueous emulsion, 10 kg/ha, V. or VI. period
From the text: as §1
Pflanzen von tetraploidem Roggen Sorte Gibrid 67 werden in der V. oder VI.

[9] = Chulpan, single compounds, 1% aqueous emulsion, 10 kg/ha, V. or VI. period

O=C(O)c1ccccc1 [Beispiel 31, Äthanolaminsalz der Benzoesäure]
Anzahl von Körnern der Ähre bei freier Bestäubung ([1]; V. or VI. period): 44,0 | Anzahl von Körnern der Ähre im Isolator ([1]; V. or VI. period): 0,8 | Prozentsatz der Sterilität ([1]; V. or VI. period): 98,2% | Prozentsatz des Ansetzens bei freier Bestäubung ([1]; control = 100): 99,5% | LD50 (in vivo): 4100 mg/kg | Anzahl von Körnern der Ähre bei freier Bestäubung ([2]; V. and VI. periods): 43,7 | Anzahl von Körnern der Ähre im Isolator ([2]; V. and VI. periods): 0,9 | Prozentsatz der Sterilität ([2]; V. and VI. periods): 97,9% | Prozentsatz des Ansetzens bei freier Bestäubung ([2]; control = 100): 96,9%

CCC(CO)(CO)CO [Beispiel 39, Etriol]
Anzahl von Körnern der Ähre bei freier Bestäubung (Tritikale Sorte PRAG I09; V. and VI. period): 68,2 | Anzahl von Körnern der Ähre im Isolator (Tritikale Sorte PRAG I09; V. and VI. period): 0,7 | Prozentsatz der Sterilität (Tritikale Sorte PRAG I09; V. and VI. period): 99,0% | Prozentsatz des Ansetzens bei freier Bestäubung (Tritikale Sorte PRAG I09): 98,8% | Anzahl von Körnern der Rispe bei freier Bestäubung ([3]; V. or VI. period): 355,1 | Anzahl von Körnern der Rispe im Isolator ([3]; V. or VI. period): 0,0 | percent pollen sterility at 10000 g/ha ([3]; V. or VI. period): 100% | response vs control in vivo at 10000 g/ha [3]: 93.6% | Anzahl von Körnern der Ähre bei freier Bestäubung ([4]; V. and VI. periods): 53,2 | Anzahl von Körnern der Ähre im Isolator ([4]; V. and VI. periods): 1,6 | Prozentsatz der Sterilität ([4]; V. and VI. periods): 96,7% | Prozentsatz des Ansetzens bei freier Bestäubung ([4]; control = 100): 98,5%

NCCO.O=CO [Beispiel 48, Monoäthanolaminsalz der Ameisensäure]
Anzahl von Körnern der Ähre bei freier Bestäubung [5, 9]: 55,2 | Anzahl von Körnern der Ähre im Isolator [5, 9]: 1,2 | Prozentsatz der Sterilität [5, 9]: 97,7% | Prozentsatz des Ansetzens bei freier Bestäubung ([5]; Chulpan, single compounds, 1% aqueous emulsion, 10 kg/ha, control = 100): 97,4% | Prozentsatz der Sterilität (Tritikale Sorte PRAG I09; V. and VI. period): 99,9% | Prozentsatz des Ansetzens bei freier Bestäubung (Tritikale Sorte PRAG I09): 92,9% | Anzahl von Körnern der Rispe bei freier Bestäubung ([3]; V. or VI. period): 352,2 | Anzahl von Körnern der Rispe im Isolator ([3]; V. or VI. period): 0,0 | Prozentsatz der Sterilität ([3]; V. or VI. period): 100% | Prozentsatz des Ansetzens bei freier Bestäubung ([3]; control = 100): 92,8%

O=C(O)c1ccccc1C(=O)O [Beispiel 55, Phthalsäuremonoäthanolaminsalz]
Anzahl von Körnern der Ähre bei freier Bestäubung [5, 9]: 55,6 | Anzahl von Körnern der Ähre im Isolator [5, 9]: 3,1 | pest or weed control at 10000 g/ha ([5]; read-out: Prozentsatz der Sterilität): 94% | response vs control in vivo at 10000 g/ha ([5]; read-out: Prozentsatz des Ansetzens bei freier Bestäubung): 98.1% | Anzahl von Körnern der Ähre bei freier Bestäubung ([6]; V. or VI. period): 44,0 | Anzahl von Körnern der Ähre im Isolator ([6]; V. or VI. period): 0,3 | percent sterility at 10000 g/ha ([6]; V. or VI. period, read-out: Prozentsatz der Sterilität): 99.3% | response vs control in vivo at 10000 g/ha ([6]; control = 100, read-out: Prozentsatz des Ansetzens bei freier Bestäubung): 99.3% | Anzahl von Körnern der Rispe bei freier Bestäubung ([3]; V. or VI. period): 350,9 | Anzahl von Körnern der Rispe im Isolator ([3]; V. or VI. period): 0,0 | percent pollen sterility at 10000 g/ha ([3]; V. or VI. period): 100% | response vs control in vivo at 10000 g/ha [3]: 92.5% | LD50 (in vivo): 1100 mg/kg | Anzahl von Körnern der Ähre bei freier Bestäubung ([7]; V. or VI. period): 46,0 | Anzahl von Körnern der Ähre im Isolator ([7]; V. or VI. period): 0,0 | Prozentsatz des Ansetzens bei freier Bestäubung ([7]; control = 100): 95,0%

O=C(O)c1ccccc1O [Beispiel 62, Äthanolaminsalz der Salizylsäure]
Anzahl von Körnern der Ähre bei freier Bestäubung [8]: 40,8 | Anzahl von Körnern der Ähre im Isolator [8]: 0,0
